# Read-outs that look alike come from different tables or passages of the source.
# Key:
# [1] = Binary mixtures study: discoloration at 60° C., visual inspection; assay type: physicochemical; settings: binary mixture with TXA in phosphoric acid solution pH 5.5, glass vials, 60° C. oven, 2 weeks
# Procedure: To determine which components of the formulation were responsible for the discoloration, binary mixtures of TXA and each component were dissolved in phosphoric acid solution at pH 5.5 in amounts representative to their concentration in Formulation A of Table 1A.
# Samples of each mixture in Table 1B were placed in glass vials and stored in 60° C. oven for 2 weeks and visually inspected periodically for discoloration. The samples from Table 1B containing TXA and Sorbitol (sample 5), or TXA and Glycerin (sample 3), or TXA and Poloxamer 407 (sample 6), or TXA and spearmint flavor F-4785, turned yellow. Thus sorbitol, glycerin, poloxamer 407 and spearmint flavor were considered to be the ingredients responsible for the discoloration of formula A.
# Binary mixtures of TXA and alternative surfactants were prepared and samples were stored in a 60° C. oven to test for discoloration as described in Table 2.
# Binary mixtures of Na CMC and TXA were prepared and stored at 60° C. for 2 weeks to test for discoloration as in Table 3.
# plasma protein = settings: cited from earlier work
# [2] = test system: bleeding during or after dental procedures; settings: local tranexamic acid as a supplement to systemic therapy; cited from earlier work
# serum albumin = serum albumin (Homo sapiens, UniProt P02768); settings: cited from earlier work
# serum albumin, sequence (P02768 25-609): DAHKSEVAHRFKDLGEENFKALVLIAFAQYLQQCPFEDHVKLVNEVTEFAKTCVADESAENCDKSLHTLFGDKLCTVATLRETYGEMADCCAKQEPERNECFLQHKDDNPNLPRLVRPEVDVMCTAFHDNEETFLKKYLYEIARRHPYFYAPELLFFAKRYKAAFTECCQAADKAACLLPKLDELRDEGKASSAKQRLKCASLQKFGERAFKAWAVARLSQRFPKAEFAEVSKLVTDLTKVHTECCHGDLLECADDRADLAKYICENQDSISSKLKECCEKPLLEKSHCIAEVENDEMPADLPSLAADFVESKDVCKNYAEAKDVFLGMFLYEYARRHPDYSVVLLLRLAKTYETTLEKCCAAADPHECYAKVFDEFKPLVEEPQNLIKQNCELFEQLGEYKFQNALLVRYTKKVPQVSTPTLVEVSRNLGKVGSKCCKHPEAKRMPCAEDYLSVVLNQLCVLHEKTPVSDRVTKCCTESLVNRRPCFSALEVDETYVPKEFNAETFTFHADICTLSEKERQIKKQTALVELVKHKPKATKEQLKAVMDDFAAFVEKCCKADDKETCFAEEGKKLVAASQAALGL
# [3] = cited from earlier work
# [4] = test system: whole blood or citrated blood from normal subjects; settings: cited from earlier work
# [5] = cited from earlier work; remark: listed apart in the source
# plasminogen = plasminogen (Homo sapiens, UniProt P00747); settings: cited from earlier work
# plasminogen, sequence (P00747 20-810 limits assumed): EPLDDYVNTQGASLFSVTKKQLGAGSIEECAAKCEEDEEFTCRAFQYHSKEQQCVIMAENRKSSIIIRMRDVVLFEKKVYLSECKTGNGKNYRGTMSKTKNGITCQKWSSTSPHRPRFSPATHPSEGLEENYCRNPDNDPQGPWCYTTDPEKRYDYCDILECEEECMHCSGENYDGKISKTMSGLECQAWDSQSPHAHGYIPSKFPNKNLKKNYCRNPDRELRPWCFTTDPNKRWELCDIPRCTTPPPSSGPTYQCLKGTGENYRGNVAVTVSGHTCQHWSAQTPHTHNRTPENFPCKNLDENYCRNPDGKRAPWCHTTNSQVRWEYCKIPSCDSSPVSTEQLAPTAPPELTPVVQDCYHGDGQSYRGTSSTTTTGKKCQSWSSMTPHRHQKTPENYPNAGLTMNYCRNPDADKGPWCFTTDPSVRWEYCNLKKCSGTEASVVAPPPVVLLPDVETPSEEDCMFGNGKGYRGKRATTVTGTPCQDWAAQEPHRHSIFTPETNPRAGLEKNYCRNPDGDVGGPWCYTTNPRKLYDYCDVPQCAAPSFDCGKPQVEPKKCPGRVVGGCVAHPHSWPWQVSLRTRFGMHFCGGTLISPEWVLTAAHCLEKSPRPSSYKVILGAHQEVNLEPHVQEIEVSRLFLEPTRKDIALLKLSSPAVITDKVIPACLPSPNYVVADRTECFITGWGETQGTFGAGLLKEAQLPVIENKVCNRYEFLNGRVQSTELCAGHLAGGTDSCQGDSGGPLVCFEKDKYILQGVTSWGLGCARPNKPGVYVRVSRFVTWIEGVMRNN
# [6] = after oral and intravenous administration
# [7] = four doses of 10-20 mg per kg body weight 36-48 hours before surgery
# [8] = three hours after a single oral dose of 25 mg per kg body weight
compound,measurement,setting,value
polyoxyethylene (20)sorbitan monooleate [Tween 80],Discoloration,[1],didn't cause discoloration
"alpha-D-Glucopyranoside, beta-D-fructofuranosyl, monooctadecanoate [Sucrose Stearate]",Discoloration,[1],did not dissolve into solution
"NC[C@H]1CC[C@H](C(=O)O)CC1 [tranexamic acid, trans-4-(aminomethyl) cyclohexanecarboxylic acid]",plasma protein binding,plasma protein; at therapeutic plasma levels of 5-10 mg/L,negligible
same,plasma protein binding,plasma protein; at therapeutic plasma levels,about 3%
same,incidence of bleeding during or after dental procedures (postoperative bleeding),[2],significantly reduces
same,binding to serum albumin,serum albumin,does not bind
same,"concentrations in saliva, initially",[3]; after mouth rinse,above 200 μg per mL
same,plasma concentrations,[3]; after mouth rinse,below 2 μg per mL
same,time saliva concentrations remained above therapeutic levels,[3]; after mouth rinse,more than 2 hours
same,saliva levels,"[3]; after oral administration, any time point",undetectable
same,maximum mean plasma concentration,[3]; after oral administration,~7 μg per mL
same,time to maximum mean plasma concentration,[3]; after oral administration,120 min
same,thrombin time,[4]; concentrations of 1 mg to 10 mg per mL blood,prolongs
same,"influence on the platelet count, the coagulation time, or various coagulation factors","[4]; concentrations up to 10 mg per mL blood, whole blood or citrated blood from normal subjects",no influence
same,excretion,[5]; 24 hours after oral administration of 10-15 mg per kg body weight,39%
same,concentration in fetal serum,[5]; after intravenous injection of 10 mg per kg body weight,about 30 μg per mL
same,acetylated product excreted,[5]; after oral administration,~0.5%
same,deaminated dicarboxylic acid excreted,[5]; after oral administration,~2%
same,parent compound excreted,[5]; after oral administration,approximately 50%
same,fibrinolytic activity of the semen,[5]; [6],inhibits
same,motility of the spermatozoa,[5]; [6],without affecting
same,passage into the semen,[5]; [6],passes into the semen
same,concentration in breast milk relative to corresponding serum levels,[5]; during lactation,1/100
same,plasma concentration,[5]; five hours after intravenous 10 mg per kg body weight,5 μg per mL
same,time an antifibrinolytically active concentration (10 μg/mL) remained in the serum,[5]; [7],7 to 8 h
same,time an antifibrinolytically active concentration (10 μg/mL) remained in the tissues investigated,[5]; [7],up to 17 hours
same,biological half-life in the joint fluid,[5]; in vivo,about 3 hours
same,concentration in the joint fluid compared with the serum,[5]; in vivo,same concentration
same,dose excreted in the urine as unchanged drug,[5]; in vivo,more than 95%
same,fraction of the drug metabolized,[5]; in vivo,less than 5%
same,placental transfer,[5]; in vivo,crosses the placenta
same,half-life for the terminal elimination phase,[5]; intravenous dose of 1 g,about 2 hours
same,plasma concentration,[5]; one hour after intravenous 10 mg per kg body weight,18.3 μg per mL
same,excretion,[5]; one hour after intravenous administration of 10 mg per kg body weight,about 30%
same,excretion,[5]; one hour after oral administration of 10-15 mg per kg body weight,1%
same,effect of food intake on bioavailability,[5]; oral,not affected
same,ability to cross the blood-brain barrier,[5]; patients with ruptured intracranial aneurysms,has been demonstrated
same,aqueous humor level,[5]; [8],1.6 mg per L
same,peak serum level,[5]; [8],15.4 mg per L
same,plasma concentration,[5]; three hours after intravenous 10 mg per kg body weight,9.6 μg per mL
same,excretion,[5]; three hours after intravenous administration of 10 mg per kg body weight,~55%
same,excretion,[5]; three hours after oral administration of 10-15 mg per kg body weight,7%
same,binding to strong and weak sites in the plasminogen molecule relative to epsilon aminocaproic acid (EACA),plasminogen,considerably more strongly
polyoxyethylene sorbitan monolaurate [Tween 20],Discoloration,[1],didn't cause discoloration
"beta-D-Fructofuranosyl-alpha-D-glucopyranoside, monododecanoate [Sucrose Laurate]",Discoloration,[1],didn't cause discoloration
